Experimental data: patent publication EP4721737A1, “USE OF PHARMACEUTICAL COMPOSITION COMPRISING COMPOUND HAVING BIS(AZANYLYLIDENE) SULFONYL STRUCTURE FOR TREATING ANEMIA-RELATED DISEASES” (Scinnohub Pharmaceutical Co., Ltd., priority 2023, dated 2024)
Where two headings read alike, the source gives them in different places.

Key:
[1] = biological target: T1, PKR in ex vivo red blood cells from healthy individuals (Homo sapiens, UniProt P30613); assay: ex vivo pyruvate kinase (PKR) activity experiment, red blood cells of healthy individuals; format: cell-based; settings: 3 hours co-cultivation
T1 construct: endogenous in cells; host or cells: human red blood cells isolated from fresh peripheral blood of healthy individuals
How it was run: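 Washed, Percoll-purified human RBCs at 1 × 10^7 cells/mL were exposed to compound (final 1–3000 nM, 1% DMSO) for 3 h at 37°C, then lysed. PKR activity in lysate was followed kinetically by fluorescence at 540/590 nm over 1 h. Slope versus 1% DMSO control gave % activation; AC50 from variable-slope fit.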

[2] = pharmacokinetic properties test in mice; format: in vivo; settings: ICR mouse, single, plasma; for MRT last: read-out: MRT0-t; for Vd: read-out: Vss
Method: The pharmacokinetic properties of the compounds of the present disclosure in different animal species were investigated by measuring plasma drug concentrations following intravenous and oral gavage in mouse, rat, and dog.
i. The compounds were weighed, then the solvent (5% DMSO + 10% Solutol + 85% saline) was added to prepare the administration solution. ii. On the day before the experiment, animals in the oral administration group were fasted overnight (10-14 hours) and fed 4 hours after administration. iii. At each time point after administration, approximately 30 µL of venous blood was collected from an appropriate location in each group of animals and placed in a sodium heparin tube. Blood samples were placed on ice and centrifuged within 1 hour to separate plasma (centrifugation conditions: 6800 g, 6 min, 2-8°C). Plasma samples were stored at -80°C until analysis.
b) An LC-MS/MS analytical method was developed for measuring compound concentrations in mouse, rat, and dog plasma. This method was used to determine compound concentrations in biological samples obtained in this assay.
Pharmacokinetic parameters were calculated using Phoenix WinNonlin 7.0 using plasma drug concentration data at different time points.

T1 sequence (P30613 whole entry): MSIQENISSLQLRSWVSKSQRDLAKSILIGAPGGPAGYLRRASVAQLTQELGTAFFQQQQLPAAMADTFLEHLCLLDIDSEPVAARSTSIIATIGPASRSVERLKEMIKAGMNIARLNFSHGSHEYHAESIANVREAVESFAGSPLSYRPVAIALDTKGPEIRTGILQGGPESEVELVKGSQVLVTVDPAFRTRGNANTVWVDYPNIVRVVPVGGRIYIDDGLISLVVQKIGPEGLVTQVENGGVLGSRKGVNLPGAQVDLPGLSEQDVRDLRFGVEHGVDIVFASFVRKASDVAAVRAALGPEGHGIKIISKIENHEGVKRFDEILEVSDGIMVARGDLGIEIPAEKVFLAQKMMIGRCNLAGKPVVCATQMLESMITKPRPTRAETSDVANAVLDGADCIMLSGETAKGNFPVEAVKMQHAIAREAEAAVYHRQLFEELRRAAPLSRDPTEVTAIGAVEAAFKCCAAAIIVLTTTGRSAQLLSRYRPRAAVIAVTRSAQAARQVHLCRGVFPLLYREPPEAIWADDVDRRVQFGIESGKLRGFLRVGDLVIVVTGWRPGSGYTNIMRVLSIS

Row | AC50 [1] [nM] | AUC(0-t) ([2]; 1 mg/kg intravenous injection) [ng·h/mL] | Cmax ([2]; 1 mg/kg intravenous injection) [ng/mL] | Tmax ([2]; 1 mg/kg intravenous injection) [h] | clearance ([2]; 1 mg/kg intravenous injection) [mL/min/kg] | half-life ([2]; 1 mg/kg intravenous injection) [h] | MRT last ([2]; 1 mg/kg intravenous injection) [h] | Vd ([2]; 1 mg/kg intravenous injection) [L/kg] | AUC(0-t) ([2]; 10 mg/kg oral gavage, fasted) [ng·h/mL] | Cmax ([2]; 10 mg/kg oral gavage, fasted) [ng/mL] | Tmax ([2]; 10 mg/kg oral gavage, fasted) [h] | half-life ([2]; 10 mg/kg oral gavage, fasted) [h] | MRT last ([2]; 10 mg/kg oral gavage, fasted) [h] | Structure (SMILES)
1 | < 100 | 679 | 945 | 0.08 | 25.1 | 1.3 | 0.91 | 1.5 | 7880 | 4230 | 0.33 | 1.75 | 1.89 | N#Cc1ccc(S(=O)(=O)N2CC(=C3CN(C(=O)[C@H](CO)c4ccccc4)C3)C2)cc1 [Compound 65, (S)-4-(1'-(3-hydroxy-2-phenylpropionyl)-1',4'-dihydro-2H,2'H-[3,3'-diazetidinylidene]-1(4H)-ylsulfonyl)benzonitrile]
2 | – | 260 | 570 | 0.08 | 62.9 | 2.44 | 1.33 | 6.3 | 2010 | 1440 | 0.25 | 2.03 | 1.71 | O=C([C@H](CO)c1ccc(F)cc1F)N1CC(=C2CN(S(=O)(=O)c3ccccn3)C2)C1 [Compound 83, (S)-2-(2,4-difluorophenyl)-3-hydroxy-1-(1'-(pyridin-2-ylsulfonyl)-1',4'-dihydro-2H,2'H-[3,3'-diazetidinylidene]-1(4H)-yl)propan-1-one]
